Measured values: patent US20140024527A1, “HERBICIDAL PYRAZINONES” (E I DU DE NEMOURS AND COMPANY, priority 2011, published 2014)

Tests used:
Type in all cases: in vivo
[1] = tested on: barnyardgrass (Echinochloa crus-galli); assay: Test B flooded paddy test; conditions: Flood
Excerpt: (§1) Plant species in the flooded paddy test consisted of rice (Oryza sativa), umbrella sedge (Cyperus difformis), ducksalad (Heteranthera limosa) and barnyardgrass (Echinochloa crus-galli) grown to the 2-leaf stage for testing. At time of treatment, test pots were flooded to 3 cm above the soil surface, treated by application of test compounds directly to the paddy water, and then maintained at that water depth for the duration of the test. Treated plants and controls were maintained in a greenhouse for 13 to 15 days, after which time all species were compared to controls and visually evaluated. Plant response ratings, summarized in Table B, are based on a scale of 0 to 100 where 0 is no effect and 100 is complete control. A dash (-) response means no test result.

rice (Oryza sativa) = assay: Test B flooded paddy test; conditions: Flood, scale 0 to 100
Excerpt: as §1

[2] = tested on: umbrella sedge (Cyperus difformis); assay: Test B flooded paddy test; conditions: Flood, scale 0 to 100
Excerpt: as §1

[3] = tested on: ducksalad (Heteranthera limosa); assay: Test B flooded paddy test; conditions: Flood, scale 0 to 100
Excerpt: as §1

corn (Zea mays) [4] = assay: Test A preemergence; conditions: 0 to 100 scale, 0 no effect, 100 complete control, approx. 10 days
Excerpt: (§2) Seeds of barnyardgrass (Echinochloa crus-galli), large crabgrass (Digitaria sanguinalis), giant foxtail (Setaria faberii), morningglory (Ipomoea spp.), pigweed (Amaranthus retroflexus), velvetleaf (Abutilon theophrasti), wheat (Triticum aestivum) and corn (Zea mays) were planted into a blend of loam soil and sand and treated preemergence with a directed soil spray using test chemicals formulated in a non-phytotoxic solvent mixture which included a surfactant. At the same time these species were also treated with postemergence applications of test compounds formulated in the same manner. Plants ranged in height from 2 to 10 cm and were in the one- to two-leaf stage for the postemergence treatments. Treated plants and untreated controls were maintained in a greenhouse for approximately 10 days, after which time all treated plants were compared to untreated controls and visually evaluated for injury. Plant response ratings, summarized in Table A, are based on a 0 to 100 scale where 0 is no effect and 100 is complete control.

[5] = tested on: giant foxtail (Setaria faberii); assay: Test A preemergence; conditions: 0 to 100 scale, 0 no effect, 100 complete control, approx. 10 days
Excerpt: as §2

[6] = tested on: velvetleaf (Abutilon theophrasti); assay: Test A preemergence; conditions: 0 to 100 scale, 0 no effect, 100 complete control, approx. 10 days
Excerpt: as §2

[7] = tested on: barnyardgrass (Echinochloa crus-galli); assay: Test A preemergence; conditions: 0 to 100 scale, 0 no effect, 100 complete control, approx. 10 days
Excerpt: as §2

[8] = tested on: pigweed (Amaranthus retroflexus); assay: Test A preemergence; conditions: 0 to 100 scale, 0 no effect, 100 complete control, approx. 10 days
Excerpt: as §2

[9] = tested on: wheat (Triticum aestivum); assay: Test A preemergence; conditions: 0 to 100 scale, 0 no effect, 100 complete control, approx. 10 days
Excerpt: as §2

[10] = tested on: morningglory (Ipomoea spp.); assay: Test A preemergence; conditions: 0 to 100 scale, 0 no effect, 100 complete control, approx. 10 days
Excerpt: as §2

[11] = tested on: large crabgrass (Digitaria sanguinalis); assay: Test A preemergence; conditions: 0 to 100 scale, 0 no effect, 100 complete control, approx. 10 days
Excerpt: as §2

corn (Zea mays) [12] = assay: Test A postemergence; conditions: 0 to 100 scale, 0 no effect, 100 complete control, approx. 10 days
Excerpt: as §2

[13] = tested on: giant foxtail (Setaria faberii); assay: Test A postemergence; conditions: 0 to 100 scale, 0 no effect, 100 complete control, approx. 10 days
Excerpt: as §2

[14] = tested on: velvetleaf (Abutilon theophrasti); assay: Test A postemergence; conditions: 0 to 100 scale, 0 no effect, 100 complete control, approx. 10 days
Excerpt: as §2

[15] = tested on: barnyardgrass (Echinochloa crus-galli); assay: Test A postemergence; conditions: 0 to 100 scale, 0 no effect, 100 complete control, approx. 10 days
Excerpt: as §2

[16] = tested on: pigweed (Amaranthus retroflexus); assay: Test A postemergence; conditions: 0 to 100 scale, 0 no effect, 100 complete control, approx. 10 days
Excerpt: as §2

[17] = tested on: wheat (Triticum aestivum); assay: Test A postemergence; conditions: 0 to 100 scale, 0 no effect, 100 complete control, approx. 10 days
Excerpt: as §2

[18] = tested on: morningglory (Ipomoea spp.); assay: Test A postemergence; conditions: 0 to 100 scale, 0 no effect, 100 complete control, approx. 10 days
Excerpt: as §2

[19] = tested on: large crabgrass (Digitaria sanguinalis); assay: Test A postemergence; conditions: 0 to 100 scale, 0 no effect, 100 complete control, approx. 10 days
Excerpt: as §2

O=C1CCCC(O)=C1C(=O)c1nc(Cl)c(-c2cccc(Cl)c2)n(C2CCCCC2)c1=O [Compound 3, 5-chloro-6-(3-chlorophenyl)-1-cyclohexyl-3-[(2-hydroxy-6-oxo-1-cyclohexen-1-yl)carbonyl]-2(1H)-pyrazinone]
0: Plant response rating, Barnyardgrass ([1]; 31 g ai/ha, scale 0 to 100) | Plant response rating, Barnyardgrass ([1]; 62 g ai/ha, scale 0 to 100) | Plant response rating, Barnyardgrass ([1]; 125 g ai/ha, scale 0 to 100) | Plant response rating, Barnyardgrass ([1]; 250 g ai/ha, scale 0 to 100 (0 no effect, 100 complete control)) | Plant response rating, Rice (rice (Oryza sativa); 31 g ai/ha) | Plant response rating, Rice (rice (Oryza sativa); 62 g ai/ha) | Plant response rating, Rice (rice (Oryza sativa); 125 g ai/ha) | Plant response rating, Rice (rice (Oryza sativa); 250 g ai/ha) | Plant response rating, Sedge, Umbrella ([2]; 31 g ai/ha) | Plant response rating, Sedge, Umbrella ([2]; 62 g ai/ha) | Plant response rating, Ducksalad ([3]; 31 g ai/ha) | Plant response rating, Corn (corn (Zea mays) [4]; 62 g ai/ha) | Plant response rating, Corn (corn (Zea mays) [4]; 250 g ai/ha) | Plant response rating, Foxtail, Giant ([5]; 62 g ai/ha) | Plant response rating, Foxtail, Giant ([5]; 250 g ai/ha) | Plant response rating, Barnyardgrass ([7]; 62 g ai/ha) | Plant response rating, Pigweed ([8]; 62 g ai/ha) | Plant response rating, Wheat ([9]; 62 g ai/ha) | Plant response rating, Wheat ([9]; 250 g ai/ha) | Plant response rating, Morningglory ([10]; 62 g ai/ha) | Plant response rating, Crabgrass, Large ([11]; 62 g ai/ha) | Plant response rating, Corn (corn (Zea mays) [12]; 62 g ai/ha) | Plant response rating, Corn (corn (Zea mays) [12]; 250 g ai/ha) | Plant response rating, Foxtail, Giant ([13]; 62 g ai/ha) | Plant response rating, Foxtail, Giant ([13]; 250 g ai/ha) | Plant response rating, Barnyardgrass ([15]; 62 g ai/ha) | Plant response rating, Barnyardgrass ([15]; 250 g ai/ha) | Plant response rating, Pigweed ([16]; 62 g ai/ha) | Plant response rating, Wheat ([17]; 62 g ai/ha) | Plant response rating, Wheat ([17]; 250 g ai/ha) | Plant response rating, Morningglory ([18]; 62 g ai/ha) | Plant response rating, Crabgrass, Large ([19]; 62 g ai/ha)
20: Plant response rating, Ducksalad ([3]; 62 g ai/ha) | Plant response rating, Barnyardgrass ([7]; 250 g ai/ha)
40: Plant response rating, Velvetleaf ([6]; 62 g ai/ha)
80: Plant response rating, Ducksalad ([3]; 125 g ai/ha) | Plant response rating, Ducksalad ([3]; 250 g ai/ha) | Plant response rating, Velvetleaf ([6]; 250 g ai/ha)
100: Plant response rating, Velvetleaf ([14]; 250 g ai/ha)
30: Plant response rating, Sedge, Umbrella ([2]; 125 g ai/ha) | Plant response rating, Crabgrass, Large ([11]; 250 g ai/ha) | Plant response rating, Pigweed ([16]; 250 g ai/ha) | Plant response rating, Morningglory ([18]; 250 g ai/ha)
10: Plant response rating, Morningglory ([10]; 250 g ai/ha) | Plant response rating, Crabgrass, Large ([19]; 250 g ai/ha)
60: Plant response rating, Sedge, Umbrella ([2]; 250 g ai/ha) | Plant response rating, Pigweed ([8]; 250 g ai/ha) | Plant response rating, Velvetleaf ([14]; 62 g ai/ha)
